Laboratory results from patent US20040152715A1, “Cycloalkylene amide compounds as NR2B receptor antagonists” (priority 2002, published 2004).

Experiments:
[1] = target: T1, NR2B receptor (Rattus norvegicus, UniProt P35439+Q00960); assay: NR2B Binding Assay; conditions: statement in words in Background Art on prior-art compounds; test not named
T1 construct: Membranes were prepared by homogenization of forebrain of male CD rats; from tissue; host or cells: rat forebrain P2 membranes
Procedure: The activity of the cycloalkylene amide compounds of the present invention, as NR2B antagonists, is determined by their ability to inhibit the binding of NR2B subunit at its receptor sites employing radioactive ligands.
The NR2B antagonist activity of the cycloalkylene amide compounds is evaluated by using the standard assay procedure described in, for example, J. Pharmacol., 331, pp117-126, 1997. This method essentially involves determining the concentration of the individual compound required to reduce the amount of radiolabelled NR2B ligands by 50% at their receptor sites, thereby affording characteristic IC50 values for each compound tested. More specifically, the assay is carried out as follows.
Membranes were prepared by homogenization of forebrain of male CD rats weighing between 170˜190 g by using glass-Teflon homogenizer in 0.32 M sucrose at 4° C. The crude nuclear pellet was removed by centrifugation at 1000×g for 10 min, and the supernatant centrifuged at 17000×g for 25 min. […]
For the saturation assay, receptor saturation was determined by incubating [^3H]-CP-98,113 and 50 μg protein of P2 membrane for 60 minutes at room temperature in a final 100 μl of incubation buffer (50 mM Tris HCl, pH7.4). Total and non-specific bindings (in the presence of 10 μM of unlabeled CP-98,113) were determined in a range of [^3H]-CP-98113 concentrations (0.625 nM to 60 nM). […]
For the competition assay, test compounds were incubated in duplicate with 5 nM [^3H]-CP-98,113 and 50 μg protein of P2 membrane for 60 minutes at room temperature in a final 100 μl of 50 mM Tris HCl buffer (pH7.4). Nonspecific binding was determined by 10 μM of unlabeled CP-98,113 (25 μl). […]
All incubations were terminated by rapid vacuum filtration over 0.2% polyethyleneimine soaked Whatman GF/B glass fibre filter paper using a SKATRON cell harvester followed by three washes with ice-cold filtration buffer (5 mM Tris HCl, pH 7.4.). Receptor-bound radioactivity was quantified by liquid scintillation counting using Packard LS counter. […]

[2] = target: T2, human NR1b/2B receptor (Homo sapiens, UniProt Q13224); assay: Human NR2B Cell Functional Assay; format: cell-based; conditions: statement in words in Background Art; test not named
T2 construct: expressed in transfected cells
T2 sequence (Q13224 27-1484): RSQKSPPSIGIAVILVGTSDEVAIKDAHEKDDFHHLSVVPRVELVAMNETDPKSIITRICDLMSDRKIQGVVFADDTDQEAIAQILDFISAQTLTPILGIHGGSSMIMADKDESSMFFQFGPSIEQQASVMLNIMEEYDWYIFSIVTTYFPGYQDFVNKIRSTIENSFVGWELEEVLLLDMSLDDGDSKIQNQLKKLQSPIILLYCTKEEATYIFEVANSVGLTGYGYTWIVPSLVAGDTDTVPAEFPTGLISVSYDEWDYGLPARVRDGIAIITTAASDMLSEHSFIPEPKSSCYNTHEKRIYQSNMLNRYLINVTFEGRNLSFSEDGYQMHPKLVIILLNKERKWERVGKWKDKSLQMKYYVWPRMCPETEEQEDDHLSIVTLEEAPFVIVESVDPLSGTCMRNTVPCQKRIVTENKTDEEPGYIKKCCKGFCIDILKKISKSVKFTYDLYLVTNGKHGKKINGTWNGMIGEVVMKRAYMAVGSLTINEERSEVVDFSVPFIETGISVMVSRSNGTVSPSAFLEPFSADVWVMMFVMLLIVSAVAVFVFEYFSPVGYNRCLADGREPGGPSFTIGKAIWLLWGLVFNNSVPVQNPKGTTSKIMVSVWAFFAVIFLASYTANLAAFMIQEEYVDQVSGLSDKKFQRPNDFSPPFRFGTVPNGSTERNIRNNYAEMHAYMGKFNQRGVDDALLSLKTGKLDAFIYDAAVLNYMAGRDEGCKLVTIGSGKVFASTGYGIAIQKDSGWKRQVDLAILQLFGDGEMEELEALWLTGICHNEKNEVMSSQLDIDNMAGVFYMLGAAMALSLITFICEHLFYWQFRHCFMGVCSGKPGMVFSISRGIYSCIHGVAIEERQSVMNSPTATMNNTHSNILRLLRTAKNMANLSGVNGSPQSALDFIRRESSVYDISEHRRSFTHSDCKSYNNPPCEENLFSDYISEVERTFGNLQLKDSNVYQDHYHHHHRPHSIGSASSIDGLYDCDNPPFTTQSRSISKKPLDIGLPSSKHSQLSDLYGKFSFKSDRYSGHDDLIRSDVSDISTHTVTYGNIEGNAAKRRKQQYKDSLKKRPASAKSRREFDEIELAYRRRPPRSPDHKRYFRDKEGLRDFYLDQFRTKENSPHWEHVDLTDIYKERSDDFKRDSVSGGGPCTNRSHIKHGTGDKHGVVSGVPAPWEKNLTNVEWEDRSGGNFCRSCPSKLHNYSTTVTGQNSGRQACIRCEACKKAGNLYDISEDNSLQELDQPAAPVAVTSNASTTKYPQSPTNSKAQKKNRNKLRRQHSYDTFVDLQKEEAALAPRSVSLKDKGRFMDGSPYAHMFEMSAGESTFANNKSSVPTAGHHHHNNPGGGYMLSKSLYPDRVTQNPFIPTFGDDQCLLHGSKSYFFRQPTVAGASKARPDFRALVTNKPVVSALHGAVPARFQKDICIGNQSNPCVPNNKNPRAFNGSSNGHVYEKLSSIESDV
Procedure: Human NR2B Cell Functional Assay
HEK293 cells stably expressing human NR1b/2B receptor were used for cell functional assay. Cells were grown in 75-cm^2 culture flasks, using Dulbecco's modified Eagle's medium (DMEM, high glucose) supplemented with 10% fetal bovine, 52 μg/ml Zeocin, 530 μg/ml Geneticin, 100 units/ml penicillin and 100 μg/ml streptomycin. Cells were maintained in a humidified atmosphere in 5% CO2 at 37° C., and 50-60% confluent cells were harvested by 0.05% trypsin containing 0.53 mM EDTA. The day before the experiment, expression of NR1b/2B receptor was induced by 5 μM ponasteron A in DMEM (40 ml) in the presence of 400 μM ketamine to prevent excitotoxicity. […]
Cells were washed with 10 ml of Ca^2+-free Krebs-Ringer Hepes buffer (KRH) containing 400 μM ketamine, and the loading of 5 μM fura-2 acetoxymethyl ester was made for 2 hrs at room temperature in the presence of 400 μM ketamine in Ca^2+-free KRH (10 ml). […] Fura-2 fluorescence (excitation wavelengths: 340 nm and 380 nm; emission wavelengths 510-520 nm) was monitored with a fluorescence imaging system, FDSS6000. The Δ fluorescence ratio F340/F380 (i.e., the fluorescence ratio immediately post-agonist—the basal fluorescence ratio; calculated as AUC) was used for evaluation of drug effects on agonists-induced changes in intracellular Ca^2+. The basal fluorescence ratio was determined in the presence of 10 μM MK-801.

[3] = QT prolongation; conditions: statement in words in Background Art; attributed to HERG inhibition

T1 sequence (Q00960 27-1482, other chains not shown): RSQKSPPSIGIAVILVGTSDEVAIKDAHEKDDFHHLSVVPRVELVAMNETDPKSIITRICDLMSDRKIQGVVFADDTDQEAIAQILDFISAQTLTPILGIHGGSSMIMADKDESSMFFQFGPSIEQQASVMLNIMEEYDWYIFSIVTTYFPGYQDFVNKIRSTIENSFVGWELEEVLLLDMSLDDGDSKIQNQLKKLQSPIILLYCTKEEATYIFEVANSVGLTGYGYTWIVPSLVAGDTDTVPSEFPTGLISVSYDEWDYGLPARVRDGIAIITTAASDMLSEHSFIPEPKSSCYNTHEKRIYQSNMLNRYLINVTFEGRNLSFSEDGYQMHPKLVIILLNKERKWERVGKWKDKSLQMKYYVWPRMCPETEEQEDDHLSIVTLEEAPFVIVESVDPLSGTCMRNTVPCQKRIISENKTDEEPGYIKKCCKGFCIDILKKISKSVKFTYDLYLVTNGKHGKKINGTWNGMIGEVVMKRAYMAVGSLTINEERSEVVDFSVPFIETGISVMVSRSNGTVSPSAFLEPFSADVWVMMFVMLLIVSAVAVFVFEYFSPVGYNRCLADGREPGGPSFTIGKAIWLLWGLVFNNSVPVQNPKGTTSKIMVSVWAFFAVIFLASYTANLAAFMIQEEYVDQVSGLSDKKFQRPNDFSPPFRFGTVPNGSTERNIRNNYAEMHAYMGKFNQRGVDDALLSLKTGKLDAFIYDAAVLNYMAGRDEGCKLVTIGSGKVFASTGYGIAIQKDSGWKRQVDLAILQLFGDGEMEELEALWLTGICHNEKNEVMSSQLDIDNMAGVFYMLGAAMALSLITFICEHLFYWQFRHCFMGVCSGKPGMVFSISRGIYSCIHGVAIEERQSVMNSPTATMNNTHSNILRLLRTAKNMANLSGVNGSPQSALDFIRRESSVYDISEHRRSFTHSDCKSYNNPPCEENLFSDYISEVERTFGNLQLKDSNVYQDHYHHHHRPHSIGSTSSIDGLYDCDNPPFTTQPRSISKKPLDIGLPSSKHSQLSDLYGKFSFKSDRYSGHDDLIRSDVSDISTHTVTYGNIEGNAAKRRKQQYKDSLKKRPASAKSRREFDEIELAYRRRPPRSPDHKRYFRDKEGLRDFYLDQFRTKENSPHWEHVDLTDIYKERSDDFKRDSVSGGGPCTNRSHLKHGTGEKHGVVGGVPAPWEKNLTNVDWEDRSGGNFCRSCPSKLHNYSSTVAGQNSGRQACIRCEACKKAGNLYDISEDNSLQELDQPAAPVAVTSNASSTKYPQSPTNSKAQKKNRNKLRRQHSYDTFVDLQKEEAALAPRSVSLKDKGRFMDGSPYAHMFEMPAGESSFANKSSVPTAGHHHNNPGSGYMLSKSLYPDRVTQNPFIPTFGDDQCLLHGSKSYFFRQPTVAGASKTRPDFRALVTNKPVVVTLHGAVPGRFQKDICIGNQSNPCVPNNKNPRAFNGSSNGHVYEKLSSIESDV

| binding affinity (NR2B receptor) [1] | NR2B receptor antagonist activity [2] | melting point [°C] | SMILES | QT prolongation [3] |
| --- | --- | --- | --- | --- |
|  |  | 198.1 | O=C(CCc1ccc(Cl)cc1Cl)N[C@H]1CC[C@](O)(c2ccc(O)cn2)CC1 [Example 7, 3-(2,4-dichlorophenyl)-N-[cis-4-hydroxy-4-(5-hydroxypyridin-2-yl)cyclohexyl]propanamide] |  |
|  |  | 195.4 | O=C(CCc1ccc(F)cc1)N[C@H]1CC[C@H](c2ccc(O)cn2)CC1 [Example 12, 3-(4-fluorophenyl)-N-[trans-4-(5-hydroxypyridin-2-yl)cyclohexyl]propanamide] |  |

The next lines start with the molecule.

| SMILES | binding affinity (NR2B receptor) [1] | NR2B receptor antagonist activity [2] | melting point [°C] | QT prolongation [3] |
| --- | --- | --- | --- | --- |
| O=C(CCc1ccccc1)N[C@H]1CO[C@H](c2ccc(O)cc2)OC1 [B] | insufficient | insufficient |  |  |
| O=C(CCc1ccccc1)N[C@H]1CC[C@H](c2ccc(O)cc2)CC1 [Compound A] | insufficient |  |  |  |
| CN(CCCc1ccc(F)cc1)[C@H]1CC[C@H](c2ccc3[nH]c(=O)oc3c2)CC1 [Compound E] | potent |  |  | shows QT prolongation |
